biological target: T1, Nucleotide-binding oligomerization domain-containing protein 2 (Homo sapiens, UniProt Q9HC29); experiment: Inhibition of MDP-induced human NOD2 signaling expressed in HEK-Blue cells at 10 uM preincubated for 3 hrs followed by MDP-stimulation for 20 hrs by spectrophotometry based SEAP reporter gene assay relative to control; assay type: cell-based
T1 sequence (Q9HC29 whole entry, the tested form may be a part): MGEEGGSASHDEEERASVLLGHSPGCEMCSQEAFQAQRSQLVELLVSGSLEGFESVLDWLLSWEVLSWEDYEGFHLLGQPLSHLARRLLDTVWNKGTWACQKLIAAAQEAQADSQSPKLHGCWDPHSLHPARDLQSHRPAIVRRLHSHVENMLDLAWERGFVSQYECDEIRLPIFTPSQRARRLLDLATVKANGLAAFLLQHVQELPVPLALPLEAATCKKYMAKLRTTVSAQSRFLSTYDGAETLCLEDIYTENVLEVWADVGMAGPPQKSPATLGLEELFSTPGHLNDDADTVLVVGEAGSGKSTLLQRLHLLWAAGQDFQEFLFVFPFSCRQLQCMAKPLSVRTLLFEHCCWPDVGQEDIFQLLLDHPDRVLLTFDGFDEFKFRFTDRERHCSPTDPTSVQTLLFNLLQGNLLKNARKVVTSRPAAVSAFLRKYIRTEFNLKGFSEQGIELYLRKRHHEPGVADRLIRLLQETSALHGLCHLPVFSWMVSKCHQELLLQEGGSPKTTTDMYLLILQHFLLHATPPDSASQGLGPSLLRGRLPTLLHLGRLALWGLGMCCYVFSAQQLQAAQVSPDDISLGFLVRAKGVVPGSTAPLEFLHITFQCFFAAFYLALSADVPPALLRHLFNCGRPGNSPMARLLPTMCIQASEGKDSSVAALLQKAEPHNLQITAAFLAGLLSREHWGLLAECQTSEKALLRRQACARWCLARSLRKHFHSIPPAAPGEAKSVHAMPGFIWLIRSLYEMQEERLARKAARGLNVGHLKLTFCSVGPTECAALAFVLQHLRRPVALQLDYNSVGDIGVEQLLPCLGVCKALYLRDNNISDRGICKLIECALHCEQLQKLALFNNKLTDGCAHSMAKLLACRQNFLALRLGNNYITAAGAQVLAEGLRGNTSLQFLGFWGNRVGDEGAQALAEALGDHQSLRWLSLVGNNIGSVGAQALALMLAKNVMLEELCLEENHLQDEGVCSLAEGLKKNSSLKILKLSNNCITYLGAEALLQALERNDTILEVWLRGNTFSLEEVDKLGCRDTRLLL

SMILES	inhibition [%]
COC(=O)[C@H](OCCC(=O)NCCCC[C@H](NC(=O)CC[C@@H](NC(=O)[C@H](C)NC(=O)/C=C/c1ccc(Cl)cc1F)C(N)=O)C(N)=O)[C@@H](NC(=O)c1ccccc1)c1ccccc1	-7
CC(=O)O[C@@]12CO[C@@H]1C[C@H](O)[C@@]1(C)C(=O)[C@H](O)C3=C(C)[C@@H](OC(=O)[C@H](OCCC(=O)NCCCC[C@H](NC(=O)CC[C@@H](NC(=O)[C@H](C)NC(=O)/C=C/c4cccs4)C(N)=O)C(=O)O)[C@@H](NC(=O)C(C)(C)C)c4ccccc4)C[C@@](O)([C@@H](OC(=O)c4ccccc4)[C@H]21)C3(C)C	26
CC(=O)O[C@H]1C(=O)[C@]2(C)[C@@H](OCCC(=O)NCCCC[C@H](NC(=O)CC[C@@H](NC(=O)[C@H](C)NC(=O)/C=C/c3ccc(Cl)cc3F)C(N)=O)C(N)=O)C[C@H]3OC[C@@]3(OC(C)=O)[C@H]2[C@H](OC(=O)c2ccccc2)[C@]2(O)C[C@H](O)C(C)=C1C2(C)C	9
CC(=O)O[C@@]12CO[C@@H]1C[C@H](O)[C@@]1(C)C(=O)[C@H](O)C3=C(C)[C@@H](OC(=O)[C@H](OCCC(=O)NCCCC[C@H](NC(=O)CC[C@@H](NC(=O)[C@H](C)NC(=O)/C=C/c4ccc(F)cc4Cl)C(N)=O)C(N)=O)[C@@H](NC(=O)C(C)(C)C)c4ccccc4)C[C@@](O)([C@@H](OC(=O)c4ccccc4)[C@H]21)C3(C)C	58
CC(=O)O[C@@]12CO[C@@H]1C[C@H](O)[C@@]1(C)C(=O)[C@H](O)C3=C(C)[C@@H](OC(=O)[C@H](OCCC(=O)NCCCC[C@H](NC(=O)CC[C@@H](NC(=O)[C@H](C)NC(=O)/C=C/c4ccc(Cl)cc4F)C(N)=O)C(=O)O)[C@@H](NC(=O)C(C)(C)C)c4ccccc4)C[C@@](O)([C@@H](OC(=O)c4ccccc4)[C@H]21)C3(C)C	32
CCCCOC(=O)[C@H](OCCC(=O)NCCCC[C@H](NC(=O)CC[C@@H](NC(=O)[C@H](C)NC(=O)/C=C/c1ccc(Cl)cc1F)C(N)=O)C(N)=O)[C@@H](NC(=O)c1ccccc1)c1ccccc1	-6
CC(=O)O[C@@]12CO[C@@H]1C[C@H](O)[C@@]1(C)C(=O)[C@H](O)C3=C(C)[C@@H](OC(=O)[C@H](OCCC(=O)NCCCC[C@H](NC(=O)CC[C@@H](NC(=O)[C@H](C)NC(=O)COc4cccc5ccccc45)C(N)=O)C(=O)O)[C@@H](NC(=O)C(C)(C)C)c4ccccc4)C[C@@](O)([C@@H](OC(=O)c4ccccc4)[C@H]21)C3(C)C	34
CC(=O)O[C@@]12CO[C@@H]1C[C@H](O)[C@@]1(C)C(=O)[C@H](O)C3=C(C)[C@@H](OC(=O)[C@H](OCCC(=O)NCCCC[C@H](NC(=O)CC[C@@H](NC(=O)[C@H](C)NC(=O)c4ccc(Cl)cc4)C(N)=O)C(=O)O)[C@@H](NC(=O)C(C)(C)C)c4ccccc4)C[C@@](O)([C@@H](OC(=O)c4ccccc4)[C@H]21)C3(C)C	14
CC(=O)O[C@@]12CO[C@@H]1C[C@H](O)[C@@]1(C)C(=O)[C@H](OCCC(=O)NCCCC[C@H](NC(=O)CC[C@@H](NC(=O)[C@H](C)NC(=O)/C=C/c3ccc(Cl)cc3F)C(N)=O)C(N)=O)C3=C(C)[C@@H](O)C[C@@](O)([C@@H](OC(=O)c4ccccc4)[C@H]21)C3(C)C	22
CC(=O)O[C@H]1C(=O)[C@@]2(C)[C@H]([C@H](OC(=O)c3ccccc3)[C@]3(O)C[C@H](OCCC(=O)NCCCC[C@H](NC(=O)CC[C@@H](NC(=O)[C@H](C)NC(=O)/C=C/c4ccc(Cl)cc4F)C(N)=O)C(N)=O)C(C)=C1C3(C)C)[C@]1(OC(C)=O)CO[C@@H]1C[C@@H]2O	6
CC(=O)O[C@@]12CO[C@@H]1C[C@H](O)[C@@]1(C)C(=O)[C@H](O)C3=C(C)[C@@H](OC(=O)[C@H](OCCC(=O)NCCCC[C@H](NC(=O)CC[C@@H](NC(=O)[C@H](C)NC(=O)/C=C/c4ccc(F)cc4F)C(N)=O)C(=O)O)[C@@H](NC(=O)C(C)(C)C)c4ccccc4)C[C@@](O)([C@@H](OC(=O)c4ccccc4)[C@H]21)C3(C)C	28
CC(=O)O[C@@]12CO[C@@H]1C[C@H](O)[C@@]1(C)C(=O)[C@H](O)C3=C(C)[C@@H](OC(=O)[C@H](OCCC(=O)NCCCC[C@H](NC(=O)CC[C@@H](NC(=O)[C@H](C)NC(=O)c4ccc5ccccc5n4)C(N)=O)C(=O)O)[C@@H](NC(=O)C(C)(C)C)c4ccccc4)C[C@@](O)([C@@H](OC(=O)c4ccccc4)[C@H]21)C3(C)C	28

Second part, the compound after the results:

inhibition [%]	SMILES
24	CC(=O)O[C@@]12CO[C@@H]1C[C@H](O)[C@@]1(C)C(=O)[C@H](O)C3=C(C)[C@@H](OC(=O)[C@H](OCCC(=O)NCCCC[C@H](NC(=O)CC[C@@H](NC(=O)[C@H](C)NC(=O)/C=C/c4ccc(F)c(F)c4)C(N)=O)C(=O)O)[C@@H](NC(=O)C(C)(C)C)c4ccccc4)C[C@@](O)([C@@H](OC(=O)c4ccccc4)[C@H]21)C3(C)C
41	CC(=O)O[C@H]1C(=O)[C@@]2(C)[C@H]([C@H](OC(=O)c3ccccc3)[C@]3(O)C[C@H](OC(=O)[C@H](OCCC(=O)NCCCC[C@H](NC(=O)CC[C@@H](NC(=O)[C@H](C)NC(=O)/C=C/c4ccc(C)cc4)C(N)=O)C(=O)O)[C@@H](NC(=O)c4ccccc4)c4ccccc4)C(C)=C1C3(C)C)[C@]1(OC(C)=O)CO[C@@H]1C[C@@H]2O
29	CC(=O)O[C@H]1C(=O)[C@@]2(C)[C@H]([C@H](OC(=O)c3ccccc3)[C@]3(O)C[C@H](OC(=O)[C@H](OCCC(=O)NCCCC[C@H](NC(=O)CC[C@@H](NC(=O)[C@H](C)NC(=O)/C=C/c4ccc(F)c(F)c4)C(N)=O)C(=O)O)[C@@H](NC(=O)c4ccccc4)c4ccccc4)C(C)=C1C3(C)C)[C@]1(OC(C)=O)CO[C@@H]1C[C@@H]2O
44	CC(=O)O[C@H]1C(=O)[C@@]2(C)[C@H]([C@H](OC(=O)c3ccccc3)[C@]3(O)C[C@H](OC(=O)[C@H](OCCC(=O)NCCCC[C@H](NC(=O)CC[C@@H](NC(=O)[C@H](C)NC(=O)/C=C/c4ccc(Br)cc4)C(N)=O)C(=O)O)[C@@H](NC(=O)c4ccccc4)c4ccccc4)C(C)=C1C3(C)C)[C@]1(OC(C)=O)CO[C@@H]1C[C@@H]2O
19	CC(=O)O[C@@]12CO[C@@H]1C[C@H](O)[C@@]1(C)C(=O)[C@H](O)C3=C(C)[C@@H](OC(=O)[C@H](OCCC(=O)NCCCC[C@H](NC(=O)CC[C@@H](NC(=O)[C@H](C)NC(=O)/C=C/c4ccc(F)cc4)C(N)=O)C(=O)O)[C@@H](NC(=O)C(C)(C)C)c4ccccc4)C[C@@](O)([C@@H](OC(=O)c4ccccc4)[C@H]21)C3(C)C
23	CC(=O)O[C@@]12CO[C@@H]1C[C@H](O)[C@@]1(C)C(=O)[C@H](O)C3=C(C)[C@@H](OC(=O)[C@H](OCCC(=O)NCCCC[C@H](NC(=O)CC[C@@H](NC(=O)[C@H](C)NC(=O)/C=C/c4ccc(O)cc4)C(N)=O)C(=O)O)[C@@H](NC(=O)C(C)(C)C)c4ccccc4)C[C@@](O)([C@@H](OC(=O)c4ccccc4)[C@H]21)C3(C)C
21	CC(=O)O[C@H]1C(=O)[C@@]2(C)[C@H]([C@H](OC(=O)c3ccccc3)[C@]3(O)C[C@H](OC(=O)[C@H](OCCC(=O)NCCCC[C@H](NC(=O)CC[C@@H](NC(=O)[C@H](C)NC(=O)/C=C/c4ccc(F)cc4F)C(N)=O)C(=O)O)[C@@H](NC(=O)c4ccccc4)c4ccccc4)C(C)=C1C3(C)C)[C@]1(OC(C)=O)CO[C@@H]1C[C@@H]2O
45	CC(=O)O[C@H]1C(=O)[C@@]2(C)[C@H]([C@H](OC(=O)c3ccccc3)[C@]3(O)C[C@H](OC(=O)[C@H](OCCC(=O)NCCCC[C@H](NC(=O)CC[C@@H](NC(=O)[C@H](C)NC(=O)/C=C/c4ccc(Cl)cc4F)C(N)=O)C(=O)O)[C@@H](NC(=O)c4ccccc4)c4ccccc4)C(C)=C1C3(C)C)[C@]1(OC(C)=O)CO[C@@H]1C[C@@H]2O
44	CC(=O)O[C@H]1C(=O)[C@@]2(C)[C@H]([C@H](OC(=O)c3ccccc3)[C@]3(O)C[C@H](OC(=O)[C@H](OCCC(=O)NCCCC[C@H](NC(=O)CC[C@@H](NC(=O)[C@H](C)NC(=O)/C=C/c4ccc(Cl)cc4)C(N)=O)C(=O)O)[C@@H](NC(=O)c4ccccc4)c4ccccc4)C(C)=C1C3(C)C)[C@]1(OC(C)=O)CO[C@@H]1C[C@@H]2O
30	CC(=O)O[C@@]12CO[C@@H]1C[C@H](O)[C@@]1(C)C(=O)[C@H](O)C3=C(C)[C@@H](OC(=O)[C@H](OCCC(=O)NCCCC[C@H](NC(=O)CC[C@@H](NC(=O)[C@H](C)NC(=O)/C=C/c4cccc(F)c4)C(N)=O)C(=O)O)[C@@H](NC(=O)C(C)(C)C)c4ccccc4)C[C@@](O)([C@@H](OC(=O)c4ccccc4)[C@H]21)C3(C)C
25	CC(=O)O[C@@]12CO[C@@H]1C[C@H](O)[C@@]1(C)C(=O)[C@H](O)C3=C(C)[C@@H](OC(=O)[C@H](OCCC(=O)NCCCC[C@H](NC(=O)CC[C@@H](NC(=O)[C@H](C)NC(=O)/C=C/c4ccc(C)cc4)C(N)=O)C(=O)O)[C@@H](NC(=O)C(C)(C)C)c4ccccc4)C[C@@](O)([C@@H](OC(=O)c4ccccc4)[C@H]21)C3(C)C
27	CC(=O)O[C@H]1C(=O)[C@@]2(C)[C@H]([C@H](OC(=O)c3ccccc3)[C@]3(O)C[C@H](OC(=O)[C@H](OCCC(=O)NCCCC[C@H](NC(=O)CC[C@@H](NC(=O)[C@H](C)NC(=O)/C=C/c4ccc(F)cc4)C(N)=O)C(=O)O)[C@@H](NC(=O)c4ccccc4)c4ccccc4)C(C)=C1C3(C)C)[C@]1(OC(C)=O)CO[C@@H]1C[C@@H]2O
20	CC(=O)O[C@@]12CO[C@@H]1C[C@H](O)[C@@]1(C)C(=O)[C@H](O)C3=C(C)[C@@H](OC(=O)[C@H](OCCC(=O)NCCCC[C@H](NC(=O)CC[C@@H](NC(=O)[C@H](C)NC(=O)c4ccccc4)C(N)=O)C(=O)O)[C@@H](NC(=O)C(C)(C)C)c4ccccc4)C[C@@](O)([C@@H](OC(=O)c4ccccc4)[C@H]21)C3(C)C
45	COc1cccc(/C=C/C(=O)N[C@@H](C)C(=O)N[C@H](CCC(=O)N[C@@H](CCCCNC(=O)CCO[C@@H](C(=O)O[C@H]2C[C@@]3(O)[C@@H](OC(=O)c4ccccc4)[C@@H]4[C@]5(OC(C)=O)CO[C@@H]5C[C@H](O)[C@@]4(C)C(=O)[C@H](OC(C)=O)C(=C2C)C3(C)C)[C@@H](NC(=O)c2ccccc2)c2ccccc2)C(=O)O)C(N)=O)c1

biological target: T1, Nucleotide-binding oligomerization domain-containing protein 2; experiment: Inhibition of MDP-induced human NOD2 signaling expressed in HEK-Blue cells preincubated for 3 hrs followed by MDP-stimulation for 20 hrs by spectrophotometry based SEAP reporter gene assay; assay type: cell-based

IC50 [µM]	SMILES
5.01	CC(=O)O[C@@]12CO[C@@H]1C[C@H](O)[C@@]1(C)C(=O)[C@H](O)C3=C(C)[C@@H](OC(=O)[C@H](O)[C@@H](NC(=O)OC(C)(C)C)c4ccccc4)C[C@@](O)([C@@H](OC(=O)c4ccccc4)[C@H]21)C3(C)C [DOCETAXEL ANHYDROUS]
